In patent publication US7074789B2, “Kinase inhibitors” (Amgen Inc., priority 1999, dated 2006):

Tests used:
Type in all cases: biochemical
Lyn = molecular target: T1, Lyn (Homo sapiens, UniProt P07948); experiment: Kinase inhibition assay (33P transfer), Lyn; details: Table 6, Lyn-1 kinase inhibition class
T1 construct: Kinases are expressed as either kinase domains or full length constructs; made in house
Procedure, shortened: (§1)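 Kinase domains or full-length enzymes, GST- or polyHis-tagged, were expressed in E. coli or baculovirus High Five cells and affinity-purified. Transfer of 33PO4 from ATP onto plate-bound poly(Glu,Tyr) 4:1 or poly(Arg,Ser) 3:1 was counted by liquid scintillation after a 0.5% phosphoric acid wash. IC50 = concentration halving incorporation.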

Zap-70 = molecular target: T2, Zap-70 (Homo sapiens, UniProt P43403); experiment: Kinase inhibition assay (33P transfer), Zap-70; details: Table 3; read-out: Zap-1
T2 construct: Kinases are expressed as either kinase domains or full length constructs; made in house
T2 sequence (P43403 1-619): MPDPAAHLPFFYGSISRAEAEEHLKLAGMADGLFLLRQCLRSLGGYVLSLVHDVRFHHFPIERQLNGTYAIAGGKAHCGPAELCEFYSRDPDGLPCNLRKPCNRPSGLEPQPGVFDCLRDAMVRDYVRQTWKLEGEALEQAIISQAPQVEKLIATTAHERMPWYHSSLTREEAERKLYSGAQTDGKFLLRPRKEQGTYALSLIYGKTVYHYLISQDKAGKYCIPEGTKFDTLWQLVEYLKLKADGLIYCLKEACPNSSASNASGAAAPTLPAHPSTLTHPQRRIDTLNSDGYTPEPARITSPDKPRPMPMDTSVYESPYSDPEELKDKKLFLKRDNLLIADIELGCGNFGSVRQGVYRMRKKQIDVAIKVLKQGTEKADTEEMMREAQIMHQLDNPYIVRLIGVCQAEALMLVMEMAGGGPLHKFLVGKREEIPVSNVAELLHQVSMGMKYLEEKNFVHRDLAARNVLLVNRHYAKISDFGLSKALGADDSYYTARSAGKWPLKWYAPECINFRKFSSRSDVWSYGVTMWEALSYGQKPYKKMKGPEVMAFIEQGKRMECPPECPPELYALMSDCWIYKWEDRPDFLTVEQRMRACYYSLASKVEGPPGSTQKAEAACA
Procedure, shortened: (§2)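 Enzyme activity is taken as the amount of 33PO4 moved from ATP onto poly(Glu, Tyr) 4:1 or poly(Arg, Ser) 3:1 fixed to the plate surface. Unbound label is removed with 0.5% phosphoric acid before scintillation counting.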

Kdr = molecular target: T3, Kdr (Homo sapiens, UniProt P35968); experiment: Kinase inhibition assay (33P transfer), Kdr; details: Table 3; read-out: KDR-1
T3 construct: Kinases are expressed as either kinase domains or full length constructs; made in house
Procedure, shortened: as §2

Tek = molecular target: T4, Tek (Homo sapiens, UniProt Q02763); experiment: Kinase inhibition assay (33P transfer), Tek; details: read-out: Tek-1
T4 construct: Kinases are expressed as either kinase domains or full length constructs; made in house
Procedure, shortened: as §1

c-Met = molecular target: T5, c-Met (Homo sapiens, UniProt P08581); experiment: Kinase inhibition assay (33P transfer), c-Met; details: Table 2, kinase inhibition class; read-out: Met-1
T5 construct: Kinases are expressed as either kinase domains or full length constructs; made in house
Procedure, shortened: as §1

EPHB4 = molecular target: T6, EPHB4 (Homo sapiens, UniProt P54760); experiment: Kinase inhibition assay (33P transfer), EPHB4; details: read-out: EPHB4-1
T6 construct: Kinases are expressed as either kinase domains or full length constructs; made in house
T6 sequence (P54760 16-987): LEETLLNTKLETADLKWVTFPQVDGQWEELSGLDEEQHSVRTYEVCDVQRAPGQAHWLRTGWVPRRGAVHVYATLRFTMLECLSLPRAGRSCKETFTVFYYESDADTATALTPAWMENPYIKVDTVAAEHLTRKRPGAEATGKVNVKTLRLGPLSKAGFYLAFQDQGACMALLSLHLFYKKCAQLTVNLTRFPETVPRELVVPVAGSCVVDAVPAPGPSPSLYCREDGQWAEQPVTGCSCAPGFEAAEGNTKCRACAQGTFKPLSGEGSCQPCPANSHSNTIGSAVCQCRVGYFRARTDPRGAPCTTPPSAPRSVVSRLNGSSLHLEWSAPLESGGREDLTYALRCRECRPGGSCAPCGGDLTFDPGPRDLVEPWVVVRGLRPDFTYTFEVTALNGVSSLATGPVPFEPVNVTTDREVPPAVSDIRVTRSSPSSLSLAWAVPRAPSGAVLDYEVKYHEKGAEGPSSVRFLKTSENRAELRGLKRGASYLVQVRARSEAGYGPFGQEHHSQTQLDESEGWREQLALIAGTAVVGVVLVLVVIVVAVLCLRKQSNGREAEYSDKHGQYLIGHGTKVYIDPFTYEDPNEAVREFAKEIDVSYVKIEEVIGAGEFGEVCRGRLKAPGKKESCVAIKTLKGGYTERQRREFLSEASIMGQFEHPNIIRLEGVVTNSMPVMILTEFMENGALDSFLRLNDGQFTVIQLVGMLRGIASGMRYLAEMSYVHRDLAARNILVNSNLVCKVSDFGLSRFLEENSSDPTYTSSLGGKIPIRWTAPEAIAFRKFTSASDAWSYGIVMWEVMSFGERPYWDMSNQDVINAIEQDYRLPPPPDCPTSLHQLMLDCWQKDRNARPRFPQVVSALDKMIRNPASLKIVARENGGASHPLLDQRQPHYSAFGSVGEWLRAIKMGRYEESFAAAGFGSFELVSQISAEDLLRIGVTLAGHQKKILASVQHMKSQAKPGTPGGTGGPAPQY

Hck-1 = molecular target: T7, Hck-1 (Homo sapiens, UniProt P08631); experiment: Kinase inhibition assay (33P transfer), Hck; details: Table 6, Hck-1 kinase inhibition class
T7 construct: Kinases are expressed as either kinase domains or full length constructs; made in house

Ret-1 = molecular target: T8, Ret-1 (Homo sapiens, UniProt P07949); experiment: Kinase inhibition assay (33P transfer), Ret; details: Table 6, Ret-1 kinase inhibition class
T8 construct: Kinases are expressed as either kinase domains or full length constructs; made in house

FGFR1 = molecular target: T9, FGFR1 (Homo sapiens, UniProt P11362); experiment: Kinase inhibition assay (33P transfer), FGFR1; details: read-out: FGFR1-1
T9 construct: Kinases are expressed as either kinase domains or full length constructs; made in house
T9 sequence (P11362 22-822, species assumed): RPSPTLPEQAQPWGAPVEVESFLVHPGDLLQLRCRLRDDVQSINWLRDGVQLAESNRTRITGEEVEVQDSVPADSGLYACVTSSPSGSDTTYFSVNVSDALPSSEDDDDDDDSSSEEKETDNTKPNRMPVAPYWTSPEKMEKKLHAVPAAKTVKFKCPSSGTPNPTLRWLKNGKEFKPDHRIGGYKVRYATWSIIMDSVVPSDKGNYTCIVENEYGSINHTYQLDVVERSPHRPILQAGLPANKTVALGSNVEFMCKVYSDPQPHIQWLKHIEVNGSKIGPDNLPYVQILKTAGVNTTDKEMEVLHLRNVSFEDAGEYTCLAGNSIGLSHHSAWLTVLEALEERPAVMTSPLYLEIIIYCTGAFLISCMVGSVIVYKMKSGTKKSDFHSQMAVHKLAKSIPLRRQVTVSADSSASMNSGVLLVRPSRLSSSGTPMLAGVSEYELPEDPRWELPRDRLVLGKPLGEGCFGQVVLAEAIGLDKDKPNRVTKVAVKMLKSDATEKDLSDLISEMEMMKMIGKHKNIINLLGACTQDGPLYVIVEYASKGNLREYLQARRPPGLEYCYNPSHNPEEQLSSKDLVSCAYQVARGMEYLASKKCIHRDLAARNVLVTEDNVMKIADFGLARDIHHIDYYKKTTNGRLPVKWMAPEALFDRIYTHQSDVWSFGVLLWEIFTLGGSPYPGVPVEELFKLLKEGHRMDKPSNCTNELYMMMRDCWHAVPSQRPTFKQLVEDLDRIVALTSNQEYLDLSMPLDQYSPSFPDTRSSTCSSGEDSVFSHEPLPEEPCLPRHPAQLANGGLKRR

T4 sequence (Q02763 23-1124, species assumed): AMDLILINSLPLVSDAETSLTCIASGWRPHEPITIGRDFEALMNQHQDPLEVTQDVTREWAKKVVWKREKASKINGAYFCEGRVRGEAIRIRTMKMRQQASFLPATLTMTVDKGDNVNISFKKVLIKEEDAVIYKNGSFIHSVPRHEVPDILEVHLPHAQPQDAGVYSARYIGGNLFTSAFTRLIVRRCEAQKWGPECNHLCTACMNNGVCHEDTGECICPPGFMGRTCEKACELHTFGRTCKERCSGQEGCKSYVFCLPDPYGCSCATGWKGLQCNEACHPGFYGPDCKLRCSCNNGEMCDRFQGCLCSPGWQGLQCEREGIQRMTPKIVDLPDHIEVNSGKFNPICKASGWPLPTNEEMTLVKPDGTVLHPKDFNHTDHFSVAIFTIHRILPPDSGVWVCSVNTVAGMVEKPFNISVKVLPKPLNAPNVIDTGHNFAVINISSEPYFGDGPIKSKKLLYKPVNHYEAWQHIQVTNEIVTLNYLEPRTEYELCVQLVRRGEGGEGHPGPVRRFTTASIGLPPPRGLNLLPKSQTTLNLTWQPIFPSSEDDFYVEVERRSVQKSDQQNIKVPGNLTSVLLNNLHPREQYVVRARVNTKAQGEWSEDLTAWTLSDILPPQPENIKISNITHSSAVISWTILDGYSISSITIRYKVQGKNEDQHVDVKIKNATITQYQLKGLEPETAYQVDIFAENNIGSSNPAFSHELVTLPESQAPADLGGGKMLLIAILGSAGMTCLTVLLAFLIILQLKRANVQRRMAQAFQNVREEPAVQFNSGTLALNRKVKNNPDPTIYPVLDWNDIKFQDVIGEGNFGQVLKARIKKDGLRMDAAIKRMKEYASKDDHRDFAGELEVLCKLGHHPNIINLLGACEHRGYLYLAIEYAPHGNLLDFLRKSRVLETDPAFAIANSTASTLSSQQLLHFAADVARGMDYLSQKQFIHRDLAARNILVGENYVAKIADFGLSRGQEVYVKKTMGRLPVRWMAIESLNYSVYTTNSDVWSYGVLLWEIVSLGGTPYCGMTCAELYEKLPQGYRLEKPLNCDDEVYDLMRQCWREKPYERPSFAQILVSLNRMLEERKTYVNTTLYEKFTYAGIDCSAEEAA
T5 sequence (P08581 25-1390): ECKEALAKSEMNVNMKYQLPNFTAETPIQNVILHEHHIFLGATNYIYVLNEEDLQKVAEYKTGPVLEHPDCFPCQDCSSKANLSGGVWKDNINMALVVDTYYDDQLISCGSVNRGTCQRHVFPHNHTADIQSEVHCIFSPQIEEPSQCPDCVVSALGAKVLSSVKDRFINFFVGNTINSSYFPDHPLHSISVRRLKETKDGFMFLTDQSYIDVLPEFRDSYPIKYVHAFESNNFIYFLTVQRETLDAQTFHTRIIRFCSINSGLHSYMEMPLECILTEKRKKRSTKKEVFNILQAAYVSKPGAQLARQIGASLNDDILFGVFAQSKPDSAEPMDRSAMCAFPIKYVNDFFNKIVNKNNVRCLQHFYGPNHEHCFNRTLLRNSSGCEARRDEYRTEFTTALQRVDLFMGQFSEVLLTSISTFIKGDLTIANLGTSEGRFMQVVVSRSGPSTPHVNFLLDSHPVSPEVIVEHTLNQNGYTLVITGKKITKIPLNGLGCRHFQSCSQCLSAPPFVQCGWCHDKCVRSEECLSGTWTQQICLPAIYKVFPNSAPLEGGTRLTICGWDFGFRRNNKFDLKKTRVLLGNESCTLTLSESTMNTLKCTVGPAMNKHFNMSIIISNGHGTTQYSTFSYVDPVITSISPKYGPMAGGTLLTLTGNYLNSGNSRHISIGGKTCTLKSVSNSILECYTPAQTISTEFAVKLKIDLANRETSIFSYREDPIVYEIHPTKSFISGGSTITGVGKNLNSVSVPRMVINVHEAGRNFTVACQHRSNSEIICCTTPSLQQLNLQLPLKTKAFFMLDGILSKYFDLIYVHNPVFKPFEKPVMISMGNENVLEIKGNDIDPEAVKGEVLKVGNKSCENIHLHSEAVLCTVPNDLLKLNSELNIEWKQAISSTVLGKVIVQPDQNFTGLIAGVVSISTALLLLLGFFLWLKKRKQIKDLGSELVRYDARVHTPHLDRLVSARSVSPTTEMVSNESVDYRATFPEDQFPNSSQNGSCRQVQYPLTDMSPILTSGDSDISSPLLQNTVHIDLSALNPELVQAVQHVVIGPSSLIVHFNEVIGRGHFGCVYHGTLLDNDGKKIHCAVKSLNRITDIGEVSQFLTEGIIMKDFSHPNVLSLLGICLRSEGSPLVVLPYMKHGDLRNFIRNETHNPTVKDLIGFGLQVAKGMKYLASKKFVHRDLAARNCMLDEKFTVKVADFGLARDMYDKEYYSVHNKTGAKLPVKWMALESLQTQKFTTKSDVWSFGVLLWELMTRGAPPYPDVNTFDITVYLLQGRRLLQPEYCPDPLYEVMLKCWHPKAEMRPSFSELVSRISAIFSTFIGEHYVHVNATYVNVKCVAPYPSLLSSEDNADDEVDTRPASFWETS
T8 sequence (P07949 29-1114): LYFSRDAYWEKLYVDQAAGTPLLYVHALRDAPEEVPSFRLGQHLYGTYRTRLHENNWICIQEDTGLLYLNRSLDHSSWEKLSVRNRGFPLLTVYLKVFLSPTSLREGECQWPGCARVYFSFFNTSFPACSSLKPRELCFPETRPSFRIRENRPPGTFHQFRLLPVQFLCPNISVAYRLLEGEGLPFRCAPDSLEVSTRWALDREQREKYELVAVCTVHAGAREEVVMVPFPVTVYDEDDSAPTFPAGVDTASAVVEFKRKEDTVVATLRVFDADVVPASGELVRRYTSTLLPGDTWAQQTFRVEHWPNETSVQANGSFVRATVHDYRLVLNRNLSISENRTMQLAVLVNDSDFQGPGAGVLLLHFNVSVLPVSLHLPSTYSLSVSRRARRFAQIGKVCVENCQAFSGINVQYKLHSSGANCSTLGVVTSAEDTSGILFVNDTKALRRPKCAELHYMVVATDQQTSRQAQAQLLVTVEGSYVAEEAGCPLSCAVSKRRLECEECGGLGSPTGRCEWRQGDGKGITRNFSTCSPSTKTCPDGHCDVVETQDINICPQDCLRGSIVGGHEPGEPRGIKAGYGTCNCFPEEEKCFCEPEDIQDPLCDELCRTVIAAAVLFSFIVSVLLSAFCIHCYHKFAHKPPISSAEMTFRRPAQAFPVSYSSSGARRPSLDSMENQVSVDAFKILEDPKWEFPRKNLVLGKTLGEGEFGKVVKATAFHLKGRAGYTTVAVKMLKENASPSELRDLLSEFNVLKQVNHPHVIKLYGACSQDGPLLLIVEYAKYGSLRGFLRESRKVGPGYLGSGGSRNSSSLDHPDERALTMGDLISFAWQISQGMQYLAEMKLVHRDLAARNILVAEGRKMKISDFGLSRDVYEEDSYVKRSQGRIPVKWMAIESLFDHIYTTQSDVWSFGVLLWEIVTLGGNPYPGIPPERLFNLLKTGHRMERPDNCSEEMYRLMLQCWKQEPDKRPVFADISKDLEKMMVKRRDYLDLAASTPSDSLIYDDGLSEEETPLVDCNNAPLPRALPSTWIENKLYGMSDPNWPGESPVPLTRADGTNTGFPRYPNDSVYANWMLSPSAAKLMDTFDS
T1 sequence (P07948 whole entry, species assumed, the tested form may be a part): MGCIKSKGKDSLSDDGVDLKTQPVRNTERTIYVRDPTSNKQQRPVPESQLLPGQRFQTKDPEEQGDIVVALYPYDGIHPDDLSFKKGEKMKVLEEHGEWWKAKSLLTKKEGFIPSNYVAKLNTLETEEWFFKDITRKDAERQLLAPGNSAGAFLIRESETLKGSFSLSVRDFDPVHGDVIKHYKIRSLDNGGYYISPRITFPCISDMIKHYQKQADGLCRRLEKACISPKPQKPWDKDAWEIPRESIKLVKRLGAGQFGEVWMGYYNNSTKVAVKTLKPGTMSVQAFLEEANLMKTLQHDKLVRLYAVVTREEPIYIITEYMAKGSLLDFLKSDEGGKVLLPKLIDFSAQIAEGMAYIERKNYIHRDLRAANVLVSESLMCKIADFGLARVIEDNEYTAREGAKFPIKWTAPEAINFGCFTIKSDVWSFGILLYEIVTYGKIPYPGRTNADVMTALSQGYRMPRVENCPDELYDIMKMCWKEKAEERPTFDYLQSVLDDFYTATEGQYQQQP

Row | Structure (SMILES) | IC50 (Lyn) [µM] | IC50 (Zap-70) [µM] | IC50 (Kdr) [µM] | IC50 (Tek) [µM] | IC50 (c-Met) [µM] | IC50 (EPHB4) [µM] | IC50 (Hck-1) [µM] | IC50 (Ret-1) [µM] | IC50 (FGFR1) [µM]
1 | COc1ccc(Sc2ncnc(Nc3cc(OC)c(OC)c(OC)c3)n2)cc1 [Compound 175] | 5.99 to 8.74 | > 11.2 | < 0.999 | 0.999 to 5.99 | 0.999 to 5.99 | 0.999 to 5.99 | > 11.2 | 5.99 to 8.74 | > 11.2
2 | COc1cc(Nc2ncnc(-n3ccc4cc(Cl)ccc43)n2)cc(OC)c1OC [Compound 198] | > 10.9 | > 10.9 | 0.971 to 5.83 | > 10.9 | > 10.9 | > 10.9 | > 10.9 | > 10.9 | > 10.9
3 | COc1cc(Nc2ncnc(Nc3ccc(C(=O)O)cc3)n2)cc(OC)c1OC [Compound 104] | > 11.3 | > 11.3 | 1.01 to 6.04 | > 11.3 | > 11.3 | < 1.01 | > 11.3 | > 11.3 | > 11.3
4 | COc1cc(Nc2ncnc(Nc3cccc(Cl)c3)n2)cc(OC)c1OC [Compound 135] | < 1.03 | 9.02 to 11.6 | < 1.03 | 6.19 to 9.02 | 1.03 to 6.19 | < 1.03 | > 11.6 | 1.03 to 6.19 | 1.03 to 6.19
5 | COc1cc(Nc2ncnc(-n3cc(C)c4ccccc43)n2)cc(OC)c1OC [Compound 323] | > 11.5 | 8.94 to 11.5 | < 1.02 | > 11.5 | 8.94 to 11.5 | > 11.5 | > 11.5 | > 11.5 | > 11.5
6 | COc1cc(Nc2ncnc(N3CCc4cc([N+](=O)[O-])ccc43)n2)cc(OC)c1OC [Compound 187] | > 10.6 | > 10.6 | 0.942 to 5.65 | > 10.6 | > 10.6 | > 10.6 | > 10.6 | > 10.6 | > 10.6
7 | COCCOc1ccc(Nc2ncnc(-n3c(N)nc4ccccc43)n2)cc1OC [Compound 287] | > 11 | > 11 | < 0.982 | > 11 | > 11 | > 11 | > 11 | > 11 | 0.982 to 5.89
8 | COc1ccc(Nc2ccc(Nc3ncnc(Nc4cc(OC)c(OC)c(OC)c4)n3)cc2)cc1 [Compound 922] | < 0.843 | 5.06 to 7.38 | < 0.843 | 0.843 to 5.06 | 5.06 to 7.38 | 5.06 to 7.38 | > 9.48 | 0.843 to 5.06 | 0.843 to 5.06
9 | COc1ccc(Nc2ncnc(Nc3cc(-c4ccco4)n[nH]3)n2)cc1OC [Compound 337] | 1.05 to 6.33 | > 11.9 | < 1.05 | > 11.9 | < 1.05 | 1.05 to 6.33 | > 11.9 | < 1.05 | < 1.05
10 | Cc1cccc(Nc2ncnc(Nc3ccc4[nH]ncc4c3)n2)c1 [Compound 120] | < 1.26 | 11 to 14.2 | 1.26 to 7.56 | 7.56 to 11 | 7.56 to 11 | 1.26 to 7.56 | 1.26 to 7.56 | < 1.26 | 1.26 to 7.56
